As usually defined, the viability is a read-out of living cells in per cent, often relative to untreated cells.

This series can be described thus: in vitro. Conditions: human, hela cells, % viability.
Consider `CC(=O)N(C)c1nc(-c2ccccc2)ccc1C(=O)NCc1ccco1` [CBK106334], for which the viability at 28.5 h, 10 µM amounted to 99.3%.

As to `CC(=O)N(C)c1nc(-c2ccccc2)ccc1C(=O)Nc1ccc2c(c1)OCO2` [CBK106342], the viability at 28.5 h, 10 µM turned out to be 96.8%.

`CC(=O)N(C)c1nc(-c2ccco2)ccc1C(=O)Nc1cc(C)nn1C` [CBK106356]: the viability at 28.5 h, 10 µM amounted to 89.3%.

Consider `CC(=O)N(C)c1nc(-c2ccccc2C)ccc1C(=O)Nc1cc(C)nn1C` [CBK106357], for which the viability at 28.5 h, 10 µM worked out at 88.6%.

Regarding `CN(C)c1ncc(-c2ccc(O)cc2)cc1C(=O)NCc1ccc(F)cc1` [CBK106396], the viability at 28.5 h, 10 µM came to 91.5%.

As to `COCCNC(=O)c1cc(-c2ccc(Cl)cc2)cnc1NS(C)(=O)=O` [CBK106421], the viability at 28.5 h, 10 µM came to 94.4%.

For `COCCNC(=O)c1cc(-c2ccccc2C)cnc1NS(C)(=O)=O` [CBK106422], the viability at 28.5 h, 10 µM amounted to 82.9%.

For the molecule `COc1cccc(-c2cnc(N(C)S(C)(=O)=O)c(C(=O)NC3CCCCC3)c2)c1` [CBK106446], the viability at 28.5 h, 10 µM came out at 109%.

Turning to `CN(c1ncc(-c2cc3ccccc3o2)cc1C(=O)Nc1ccc2c(c1)OCO2)S(C)(=O)=O` [CBK106464], the viability at 28.5 h, 10 µM is 101%.

As for `CN(c1ncc(-c2cc3ccccc3o2)cc1C(=O)NCC(F)(F)F)S(C)(=O)=O` [CBK106479], the viability at 28.5 h, 10 µM worked out at 114%.

In the case of `O=C1CCC(=O)N1CCn1c(=O)n(S(=O)(=O)c2ccc(-c3ccccc3)cc2)c2ccccc21` [CBK106494], the viability at 28.5 h, 10 µM is 112%.

`O=C1CCC(=O)N1CCn1c(=O)n(C(=O)CCC2CCCC2)c2ccccc21` [CBK106495]: the viability at 28.5 h, 10 µM came to 96.8%.

Take `O=C1CCC(=O)N1CCn1c(=O)n(C(=O)CCCOc2ccc(Cl)cc2)c2ccccc21` [CBK106496]: the viability at 28.5 h, 10 µM turned out to be 93.4%.

`COc1ccccc1C(=O)Cn1c(=O)n(S(=O)(=O)c2ccccc2)c2ccccc21` [CBK106497]: the viability at 28.5 h, 10 µM worked out at 90.2%.

As for `CCN(CC)c1ccc(C(=O)Cn2c(=O)n(C(=O)c3cccc(S(C)(=O)=O)c3)c3ccccc32)cc1` [CBK106500], the viability at 28.5 h, 10 µM came to 94.2%.

Take `CCCS(=O)(=O)n1c(=O)n(CC(=O)c2ccc(N(CC)CC)cc2)c2ccccc21` [CBK106504]: the viability at 28.5 h, 10 µM was 105%.

Take `CN(C)c1cccc2c(S(=O)(=O)n3c(=O)n(CCc4c[nH]c5ccccc45)c4ccccc43)cccc12` [CBK106511]: the viability at 28.5 h, 10 µM worked out at 85.8%.

Turning to `CC(C)CCCC(=O)n1c(=O)n(CCc2c[nH]c3ccccc23)c2ccccc21` [CBK106513], the viability at 28.5 h, 10 µM is 89.2%.

Regarding `COc1ccc(CCCC(=O)n2c(=O)n(CCc3c[nH]c4ccccc34)c3ccccc32)cc1` [CBK106514], the viability at 28.5 h, 10 µM is 91.3%.

Consider `CCCS(=O)(=O)n1c(=O)n(CCc2c[nH]c3ccccc23)c2ccccc21` [CBK106515], for which the viability at 28.5 h, 10 µM is 87.8%.

For the molecule `O=c1n(CC2CCCCC2)c2ccccc2n1S(=O)(=O)c1cccc(Cl)c1` [CBK106521], the viability at 28.5 h, 10 µM came to 91.4%.

In the case of `O=c1n(CC2CCCCC2)c2ccccc2n1S(=O)(=O)CCc1cccc2ccccc12` [CBK106525], the viability at 28.5 h, 10 µM came to 101%.

As to `CC(C)S(=O)(=O)n1c(=O)n(Cc2ccc(S(C)(=O)=O)cc2)c2ccccc21` [CBK106529], the viability at 28.5 h, 10 µM came to 90.3%.

On to `Cc1noc(C)c1S(=O)(=O)n1c(=O)n(Cc2ccc(S(C)(=O)=O)cc2)c2ccccc21` [CBK106536], for which the viability at 28.5 h, 10 µM worked out at 93.4%.

On to `COc1ccc(Cn2c(=O)n(C(=O)c3cccc(S(C)(=O)=O)c3)c3ccccc32)cc1` [CBK106547], for which the viability at 28.5 h, 10 µM came out at 86.5%.

Regarding `COc1ccc(Cn2c(=O)n(S(=O)(=O)c3ccc(-c4cc(C(F)(F)F)n(C)n4)s3)c3ccccc32)cc1` [CBK106552], the viability at 28.5 h, 10 µM was 97.7%.

In the case of `CCCS(=O)(=O)n1c(=O)n(Cc2ccc(OC)cc2)c2ccccc21` [CBK106553], the viability at 28.5 h, 10 µM stood at 99.7%.

Take `CC(C)CCCC(=O)n1ccn(CCCOc2ccccc2)c1=O` [CBK106561]: the viability at 28.5 h, 10 µM is 101%.

`Cc1ccccc1-n1ccn(S(=O)(=O)C(C)C)c1=O` [CBK106566]: the viability at 28.5 h, 10 µM is 89.7%.

With `CC(C)S(=O)(=O)n1ccn(-c2cccc(C(F)(F)F)c2)c1=O` [CBK106577], the viability at 28.5 h, 10 µM stood at 88%.

For `CN(C)c1cccc2c(S(=O)(=O)n3ccn(-c4cccc(C(F)(F)F)c4)c3=O)cccc12` [CBK106578], the viability at 28.5 h, 10 µM came out at 109%.

Regarding `O=c1n(-c2cccc(C(F)(F)F)c2)ccn1S(=O)(=O)c1ccc(Cl)c(Cl)c1` [CBK106579], the viability at 28.5 h, 10 µM came to 96.7%.

As to `COC(=O)CCCC(=O)n1ccn(-c2cccc(C(F)(F)F)c2)c1=O` [CBK106580], the viability at 28.5 h, 10 µM was determined as 87.6%.

In the case of `CCCS(=O)(=O)n1ccn(-c2cccc(C(F)(F)F)c2)c1=O` [CBK106585], the viability at 28.5 h, 10 µM amounted to 88.3%.

For the molecule `CC(C)c1ccc(S(=O)(=O)n2ccn(-c3cccc(C(F)(F)F)c3)c2=O)cc1` [CBK106587], the viability at 28.5 h, 10 µM is 93.8%.

With `CC(C)S(=O)(=O)n1ccn(-c2ccc(N(C)C)cc2)c1=O` [CBK106600], the viability at 28.5 h, 10 µM came out at 95.7%.

For `CC(C)CCCC(=O)n1ccn(-c2ccc(N(C)C)cc2)c1=O` [CBK106603], the viability at 28.5 h, 10 µM was determined as 92.7%.

As to `CN(C)c1ccc(-n2ccn(S(=O)(=O)c3ccc4ccccc4c3)c2=O)cc1` [CBK106607], the viability at 28.5 h, 10 µM turned out to be 93.5%.

As to `CN(C)c1ccc(-n2ccn(S(=O)(=O)c3ccc(Oc4ccccc4)cc3)c2=O)cc1` [CBK106608], the viability at 28.5 h, 10 µM was 89.3%.

`Cc1nn(C)c(C)c1S(=O)(=O)n1ccn(-c2ccc(N(C)C)cc2)c1=O` [CBK106610]: the viability at 28.5 h, 10 µM is 93%.

Turning to `O=C(CCCOc1ccc(Cl)cc1)n1ccn(CCc2cccs2)c1=O` [CBK106614], the viability at 28.5 h, 10 µM was 104%.

Regarding `O=c1n(C(c2ccccc2)c2ccccc2)ccn1S(=O)(=O)c1ccc2ccccc2c1` [CBK106623], the viability at 28.5 h, 10 µM amounted to 94.6%.

Turning to `O=c1n(C(c2ccccc2)c2ccccc2)ccn1S(=O)(=O)c1ccc(Oc2ccccc2)cc1` [CBK106624], the viability at 28.5 h, 10 µM came out at 89.5%.

With `COc1cccc(-n2ccn(C(=O)CCC3CCCC3)c2=O)c1` [CBK106625], the viability at 28.5 h, 10 µM came to 91.1%.

On to `CC(C)S(=O)(=O)n1ccn(-c2ccc3c(c2)OCO3)c1=O` [CBK106630], for which the viability at 28.5 h, 10 µM came to 90.9%.

Consider `O=c1n(-c2ccc3c(c2)OCO3)ccn1S(=O)(=O)c1ccc2c(c1)OCCO2` [CBK106636], for which the viability at 28.5 h, 10 µM turned out to be 87.8%.

For the molecule `COc1cccc(OCc2ccc(Cn3ccn(C(=O)CCCC(C)C)c3=O)cc2)c1` [CBK106638], the viability at 28.5 h, 10 µM was found to be 90.5%.

Regarding `Cc1nc2cc(OCc3ccc(Cn4ccn(C(=O)CCC5CCCC5)c4=O)cc3)ccc2s1` [CBK106641], the viability at 28.5 h, 10 µM was found to be 115%.

Regarding `CC(C)S(=O)(=O)n1ccn(-c2ccc(Oc3ccccc3)cc2)c1=O` [CBK106644], the viability at 28.5 h, 10 µM stood at 86.3%.

For `CCCc1ccc(S(=O)(=O)n2ccn(-c3ccc(Oc4ccccc4)cc3)c2=O)cc1` [CBK106648], the viability at 28.5 h, 10 µM is 107%.

Regarding `COc1ccc(S(=O)(=O)n2ccn(-c3ccc(Oc4ccccc4)cc3)c2=O)cc1OC` [CBK106649], the viability at 28.5 h, 10 µM was found to be 86.9%.

`O=c1n(-c2ccc(OC(F)(F)F)cc2)ccn1S(=O)(=O)c1ccccc1` [CBK106655]: the viability at 28.5 h, 10 µM was found to be 95.1%.

Consider `O=c1n(-c2ccc(OC(F)(F)F)cc2)ccn1S(=O)(=O)c1ccc(Cl)c(Cl)c1` [CBK106656], for which the viability at 28.5 h, 10 µM turned out to be 94.7%.

Regarding `COc1ccc(OCCCn2ccn(C(=O)CCCOc3ccc(Cl)cc3)c2=O)cc1` [CBK106662], the viability at 28.5 h, 10 µM is 94.3%.

As to `CCCS(=O)(=O)n1ccn(-c2ccc(Cl)c(Cl)c2)c1=O` [CBK106667], the viability at 28.5 h, 10 µM worked out at 110%.

Turning to `O=c1n(-c2ccc(Cl)c(Cl)c2)ccn1S(=O)(=O)CCc1cccc2ccccc12` [CBK106668], the viability at 28.5 h, 10 µM worked out at 106%.

As to `O=C(OCc1ccccc1)N1CCC(n2ccn(C(=O)CCC3CCCC3)c2=O)CC1` [CBK106670], the viability at 28.5 h, 10 µM turned out to be 86.7%.

As to `COc1cccc(Oc2nccnc2-c2ccc3c(c2)OCO3)c1` [CBK106704], the viability at 28.5 h, 10 µM was found to be 94.9%.

As for `c1ccc(C(Oc2nccnc2-c2ccc3c(c2)OCO3)c2ccccc2)cc1` [CBK106707], the viability at 28.5 h, 10 µM is 103%.

On to `c1ccc(OCCOc2nccnc2-c2ccc3c(c2)OCO3)cc1` [CBK106714], for which the viability at 28.5 h, 10 µM was 96.1%.

`c1cc(-c2nccnc2Oc2ccc3c(c2)OCO3)ccn1` [CBK106726]: the viability at 28.5 h, 10 µM stood at 92.4%.

For `c1cc(-c2nccnc2OC2CCCCC2)ccn1` [CBK106727], the viability at 28.5 h, 10 µM is 87.8%.

Regarding `c1ccc(C(Oc2nccnc2-c2ccncc2)c2ccccc2)cc1` [CBK106728], the viability at 28.5 h, 10 µM was 89.1%.

Consider `c1cc(-c2nccnc2OCCn2ccnc2)ccn1` [CBK106737], for which the viability at 28.5 h, 10 µM came out at 87%.

With `COc1ncc(-c2nccnc2OCCc2c[nH]c3ccccc23)c(OC)n1` [CBK106743], the viability at 28.5 h, 10 µM was determined as 79.2%.

As to `COc1ncc(-c2nccnc2OC2CCCCC2)c(OC)n1` [CBK106745], the viability at 28.5 h, 10 µM was determined as 90.8%.

In the case of `COc1ncc(-c2nccnc2OCc2ccccc2)c(OC)n1` [CBK106748], the viability at 28.5 h, 10 µM worked out at 108%.

For the molecule `COc1ncc(-c2nccnc2OCc2cccs2)c(OC)n1` [CBK106750], the viability at 28.5 h, 10 µM turned out to be 102%.

As for `O=C1CCCN1CCOc1nccnc1-c1ccsc1` [CBK106759], the viability at 28.5 h, 10 µM was 89.7%.

On to `O=C1c2ccccc2C(=O)N1CCOc1nccnc1-c1ccsc1` [CBK106760], for which the viability at 28.5 h, 10 µM amounted to 90.4%.

In the case of `c1ccc(C(Oc2nccnc2-c2ccsc2)c2ccccc2)cc1` [CBK106765], the viability at 28.5 h, 10 µM is 103%.

For the molecule `c1ccc(OCCOc2nccnc2-c2ccsc2)cc1` [CBK106773], the viability at 28.5 h, 10 µM worked out at 103%.

With `CC(C)N(CCOc1nccnc1-c1ccsc1)C(C)C` [CBK106777], the viability at 28.5 h, 10 µM is 111%.

As to `CCCCOc1nccnc1-c1ccsc1` [CBK106778], the viability at 28.5 h, 10 µM worked out at 101%.

Turning to `O=C1CCCN1CCOc1nccnc1-c1cc2ccccc2s1` [CBK106780], the viability at 28.5 h, 10 µM came to 91%.

In the case of `CC(=O)Nc1cccc(Oc2nccnc2-c2cc3ccccc3s2)c1` [CBK106784], the viability at 28.5 h, 10 µM is 101%.

Values taken from article PMC12040169 (PLOS Biology, 2025).
